One test has as its target T1, Lp-PLA2 in human plasma (Homo sapiens, UniProt Q13093).
T1 construct: from tissue; host or cells: pooled human plasma
T1 sequence (Q13093 22-441): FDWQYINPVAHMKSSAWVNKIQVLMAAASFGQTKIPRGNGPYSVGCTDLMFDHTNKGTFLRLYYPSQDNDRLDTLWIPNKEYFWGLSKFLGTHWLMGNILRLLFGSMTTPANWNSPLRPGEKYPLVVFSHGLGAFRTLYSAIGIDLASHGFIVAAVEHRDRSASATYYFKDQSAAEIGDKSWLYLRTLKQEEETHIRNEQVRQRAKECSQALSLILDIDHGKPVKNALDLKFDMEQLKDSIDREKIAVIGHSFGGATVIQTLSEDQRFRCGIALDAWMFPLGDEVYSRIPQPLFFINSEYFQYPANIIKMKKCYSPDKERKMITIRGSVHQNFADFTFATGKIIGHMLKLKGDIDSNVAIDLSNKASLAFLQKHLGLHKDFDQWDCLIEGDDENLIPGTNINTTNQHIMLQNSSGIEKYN
The test is described as follows: Lp-PLA2 human plasma assay (Thio-PAF assay). In kind it is biochemical. As to conditions: pooled human plasma; lower bounds; read-out: pIC50 values in the thio-PAF assay (converted). An excerpt: (3) Lipoprotein-Associated Phospholipase A2 (Lp-PLA2) Human Plasma Assay (Also Referred to as “Thio-PAF assay”)
The human plasma assay utilizes a thioester analog of PAF (phosphatidylcholine), where hydrolysis yields to the formation of a phospholipid containing a free thiol group. The amount of thiol is quantitated continuously by reacting with CPM (7-diethylamino-3-(4′-maleimidylphenyl)-4-methylcoumarin), a maleimide which increases in fluoresence after Michael addition of thiols. This assay may detect the activity of Lp-PLA2 in human plasma, as determined by specific inhibition by Lp-PLA2 inhibitors.
The thio-PAF assay was run as a quenched 15 μL assay. Compounds source plate was prepared by making 1:3 (by volume) serial dilution of the compounds into pure DMSO on 384-well microplate. 0.01 μL of compounds on compound source plate were transferred to 384 well Greiner 784076 (black) low-volume plates by ECHO liquid dispenser. 8 μL pooled human plasma, which was previously aliquoted and frozen, was added. Plates were centrifuged for 10 sec at 500 rpm. After 30 minutes preincubation, 2 μL of substrate solution comprising 2.5 mM 2-thio-PAF [from ethanol stock], 32 μM CPM [from a DMSO stock] and 3.2 mM NEM (N-ethylmaleimide) [made fresh daily in DMSO] in assay buffer of 50 mM HEPES, pH 7.4, 150 mM NaCl, 1 mM CHAPS was added to 384 well Greiner 784076 (black) low-volume plates by BRAVO liquid handling station. After 2 mins, reaction was quenched with 5 μL of 5% aqueous trifluoroacetic acid (TFA). Plates were covered to protect from light and incubated for 40 min at room temperature. Plates were read at ex: 380/em: 485 using-Envision microplate reader. PIC50 data, curve and QC analysis were conducted by using XLFit module in Excel.

Test [1] addresses T2, recombinant human Lp-PLA2 (Homo sapiens, UniProt Q13093).
T2 sequence (Q13093 22-441): T1 sequence (Q13093 22-441)
The test can be described thus: Recombinant human Lp-PLA2 assay (rhLp-PLA2, PED6 assay). In kind it is biochemical. An excerpt: (1) Recombinant Human Lp-PLA2 Assay (rhLp-PLA2) (Also Referred to as “PED6” Assay)
N-((6-(2,4-dinitrophenyl)amino)-hexanoyl)-2-(4,4-difluoro-5,7-dimethyl-4-bora-3a,4a-diaza-s-indacene-3-pentanoyl)-1-hexadecanoyl-sn-glycero-3-phosphoethanolamine, triethylammonium salt (PED6) is a commercially available fluorescently-labeled phospholipid, which is commercially available from Invitrogene and Molecular Probes. There is a quenching […] and a Bodipy fluorescein (FL) group in the sn2 position. Upon cleavage with Lp-PLA2, the Bodipy FL group is liberated and then may result in an increase in fluorescence. Inhibitors of Lp-PLA2 therefore prevent this cleavage and no fluorescent increase is observed.
The PED6 assay was run as an unquenched 10 μL assay. The source plate containing the compounds to be tested was prepared by making 1:3 (by volume) serial dilution of the compounds within DMSO on 384-well microplate. Then, 0.01 μL of the compounds on compound source plate were transferred into 384 well Greiner 784076 (black) plates using ECHO liquid dispenser. 5 μL of recombinant human Lp-PLA2 enzyme (4 nM (or […]) rhLp-PLA2 in assay buffer of 50 mM HEPES, pH 7.4, 150 mM NaCl, 1 mM CHAPS) was added to each well of the plate. Plates were centrifuged for 10 sec at 500 rpm. After 30 minutes preincubation, 5 μL of substrate ([…] PED6 [from 5 mM DMSO stock] in assay buffer of 50 mM HEPES, pH 7.4, 150 mM NaCl, 1 mM CHAPS) was added to 384 well Greiner 784076 (black) plates. Plates were centrifuged for 10 sec at 500 rpm. The plate was covered to protect it from light and incubated for 20 min at room temperature. The plates were read for fluorescence intensity at ex: 480/em: 540 using ViewLux microplate imager for Envision spectrofluoroimeters pIC50 data, curve and QC analysis was conducted by using XL fit module in Excel.

[2] abbreviates: lower bounds, read-out: pIC50 values in the PED6 assay (converted).
Setting [3] is: read-out: rhLp-PLA2 (PED6 assay) (pIC50) (converted).

SMILES strings stand for the structures. Where two headings read alike, the source gives them in different places.

Turning to `CC1Cn2c(cc(OCc3ccc(Oc4cc(F)cc(C(F)(F)F)c4)c(C#N)c3)nc2=O)N1C` (centres unmarked) [Example E1, 5-(((1,2-dimethyl-5-oxo-1,2,3,5-tetrahydroimidazo[1,2-c]pyrimidin-7-yl)oxy)methyl)-2-(3-fluoro-5-(trifluoromethyl)phenoxy)benzonitrile], the IC50 at Lp-PLA2 in human plasma was at most 100 nM; in test [1] (setting [2]), at most 1 nM.

On to `CC1Cn2c(cc(OCc3ccc(F)c(F)c3)nc2=O)N1C` (centres unmarked) [Example E2, 7-((3,4-difluorobenzyl)oxy)-1,2-dimethyl-2,3-dihydroimidazo[1,2-c]pyrimidin-5(1H)-one], for which the IC50 was at most 100 nM on Lp-PLA2 in human plasma and at most 10 nM in test [1] (setting [2]).

As for `CC1Cn2c(cc(OCc3ccc(Oc4ccc(C#N)c(C(F)(F)F)c4)c(F)c3)nc2=O)N1C` (centres unmarked) [Example E3, 4-(4-(((1,2-dimethyl-5-oxo-1,2,3,5-tetrahydroimidazo[1,2-c]pyrimidin-7-yl)oxy)methyl)-2-fluorophenoxy)-2-(trifluoromethyl)benzonitrile], the results for the IC50 (on Lp-PLA2 in human plasma; in test [1] (setting [2])) were at most 100 nM and at most 1 nM, respectively.

Consider `C[C@H]1Cn2c(cc(OCc3ccc(F)c(F)c3)nc2=O)N1C` [Example E7, (S)-7-((3,4-difluorobenzyl)oxy)-1,2-dimethyl-2,3-dihydroimidazo[1,2-c]pyrimidin-5(1H)-one], for which the IC50 was at most 100 nM at Lp-PLA2 in human plasma and at most 10 nM in test [1] (setting [2]).

Consider `CN1c2cc(OCCc3cccs3)nc(=O)n2CC1(C)C` [Example E8, 1,2,2-trimethyl-7-(2-(thiophen-2-yl)ethoxy)-2,3-dihydroimidazo[1,2-c]pyrimidin-5(1H)-one], for which the IC50 at Lp-PLA2 in human plasma was at most 100 nM; in test [1] (setting [2]), at most 10 nM.

Turning to `C[C@H]1Cn2c(cc(OCc3ccc(Oc4ccnc(C(F)(F)F)c4)c(F)c3)nc2=O)N1C` [Example E10, (S)-7-((3-fluoro-4-((2-(trifluoromethyl)pyridin-4-yl)oxy)benzyl)oxy)-1,2-dimethyl-2,3-dihydroimidazo[1,2-c]pyrimidin-5(1H)-one], the IC50 on Lp-PLA2 in human plasma is at most 100 nM; in test [1] (setting [2]) it was at most 1 nM.

On to `CN1c2cc(OCc3ccc(F)c(Cl)c3)nc(=O)n2CC1(C)C` [Example E11, 7-((3-chloro-4-fluorobenzyl)oxy)-1,2,2-trimethyl-2,3-dihydroimidazo[1,2-c]pyrimidin-5(1H)-one], for which the IC50 is at most 100 nM at Lp-PLA2 in human plasma and at most 1 nM in test [1] (setting [2]).

On to `CN1c2cc(OCc3ccc(Oc4ccc(Cl)nc4)c(F)c3)nc(=O)n2CC1(C)C` [Example E12, 7-((4-((6-chloropyridin-3-yl)oxy)-3-fluorobenzyl)oxy)-1,2,2-trimethyl-2,3-dihydroimidazo[1,2-c]pyrimidin-5(1H)-one], for which the IC50 is at most 100 nM on Lp-PLA2 in human plasma, at most 1 nM in test [1] (setting [2]) and 0.0316 nM in test [1] (setting [3]).

Consider `CN1c2cc(OCc3cc(F)c(Oc4ccc(Cl)nc4)c(F)c3)nc(=O)n2CC1(C)C` [Example E13, 7-((4-((6-chloropyridin-3-yl)oxy)-3,5-difluorobenzyl)oxy)-1,2,2-trimethyl-2,3-dihydroimidazo[1,2-c]pyrimidin-5(1H)-one], for which the figures for the IC50 (at Lp-PLA2 in human plasma; in test [1] (setting [2]); in test [1] (setting [3])) were at most 100 nM, at most 1 nM and 0.0501 nM, respectively.

Consider `C[C@H]1Cn2c(cc(OCc3cccc(C#N)c3)nc2=O)N1` [Example E109, (S)-3-(((2-methyl-5-oxo-1,2,3,5-tetrahydroimidazo[1,2-c]pyrimidin-7-yl)oxy)methyl)benzonitrile], for which the IC50 on Lp-PLA2 in human plasma is at most 100 nM.

On to `CN1c2cc(OCc3cc(F)c(F)cc3F)nc(=O)n2CC1(C)C` [Example E115, 1,2,2-trimethyl-7-((2,4,5-trifluorobenzyl)oxy)-2,3-dihydroimidazo[1,2-c]pyrimidin-5(1H)-one], for which the IC50 at Lp-PLA2 in human plasma was at most 100 nM.

Consider `CN1c2cc(OCCc3ccc(F)c(F)c3)nc(=O)n2CC1(C)C` [Example E117, 7-(3,4-difluorophenethoxy)-1,2,2-trimethyl-2,3-dihydroimidazo[1,2-c]pyrimidin-5(1H)-one], for which the IC50 at Lp-PLA2 in human plasma is at most 100 nM.

These data come from patent publication US9051325B2, “Bicyclic [5,6] imidazo pyrimodone compounds for use in the treatment of diseases or conditions mediated by Lp-PLA2” (GlaxoSmithKline Intellectual Property Development Limited, priority 2013, dated 2015).
